Experimental findings from publication PMC12291851, “Hydrogen Sulfide (H2S)-Donating Formyl Peptide Receptor 2 (FPR2) Agonists: Design, Synthesis, and Biological Evaluation in Primary Mouse Microglia Culture” (Antioxidants, 2025) are described below.

The nature of series [1]: Cell-free H2S release fluorescence assay with probe 9 (7-azido-4-methylcoumarin). It counts as physicochemical. To be noted: PBS/DMSO 10%, 37 °C, probe 9 100 μM. As to the method:
The H2S release fluorescence assay was carried out in a final volume of 100 μL PBS/DMSO 10% in black 96-well plates. Solutions with decreasing concentrations of each tested compound were prepared in PBS/DMSO 10%. Then, 50 μL of each solution was dispensed in triplicate in each well. Starting from a 10 mM stock solution, a 200 μM solution of probe 9 was prepared and stored in the dark until 50 μL was dispensed in each well. Blank wells containing only the probe at 100 μM in 100 μL of PBS/DMSO 10% are also prepared. A H2S calibration curve was obtained by incubating solutions of NaSH with the probe under the same conditions, although a different plate was used to minimize interferences due to the diffusion of rapidly released H2S. After 24 h and 48 h incubation in a humidified incubator at 37 °C, 5% CO2, fluorescence reads are obtained from each well with a plate reader TECAN M1000 Pro (Tecan, Männedorf, Switzerland), at λex = 350 nm and λem = 440 nm. Each experiment was replicated at least three times. The data were processed using Microsoft Excel (Microsoft, Redmond, WA, USA) and GraphPad Prism 7 (GraphPad Software, La Jolla, CA, USA).
Compound 9 is a turn-on fluorescent probe that features an azido moiety which can be reduced to amine by H2S, leading to the formation of the fluorescent derivative 7-amino-4-methylcoumarin 10 (λex = 350 nm and λem = 440 nm, Scheme 2). We included NaHS in the assay as a positive control and 3a as a negative control.

Series [2] relates to mouse primary microglial cells. Kind of series: LDH release assay in primary microglial cells. In kind it is cell-based. To be noted: 1 μM pretreatment 1 h, then LPS 0.1 μg/mL 24 h. The protocol:
(§1) Primary microglial cell cultures were derived from the cortices of 1–2-day-old mouse pups (1pup/1 brain/1 flask). After decapitation, the brains were extracted and immediately placed in cold Hanks’ Balanced Salt Solution (HBSS, Gibco, New York, NY, USA) on ice. The brains were washed at least three times with 7 mL of HBSS and then transferred to 10 mL of fresh culture media consisting of Dulbecco’s Modified Eagle Medium (DMEM) with GlutaMax and high glucose (4.5 g/L) (Gibco, New York, NY, USA) on ice. The tissue was minced and incubated in HBSS containing glucose, bovine serum albumin (BSA; Sigma-Aldrich, St. Louis, MO, USA), and HEPES (Gibco, New York, NY, USA) with 0.025% trypsin at 37 °C for 20 min. The trypsinization was halted by adding DMEM with GlutaMax and high glucose (4.5 g/L) supplemented with 10% heat-inactivated fetal bovine serum (FBS, Gibco, New York, NY, USA). […] The purity of microglial cell cultures was assessed as we have shown previously. […]
LDH release was measured as previously described by as an estimation of cell damage 24 h after LPS treatment. […] Absorbance was measured at 540 nm using an Infinite M200PRO microplate reader (TECAN, Männedorf, Switzerland). The results were normalized to the LDH activity released from vehicle-treated cells (considered as 100%) and expressed as a percentage of the control ± SD.
(In general: Release of lactate dehydrogenase indicates damage to the cell membrane.)

Series [3] relates to IL-6. Kind of series: IL-6 ELISA in medium of microglial cultures. To be noted: 1 μM pretreatment 1 h, then LPS 0.1 μg/mL 24 h. It counts as cell-based, mouse. As to the method:
as §1, with “min.” for “min. The trypsinization was halted by adding DMEM with GlutaMax and high glucose (4.5 g/L) supplemented with 10% heat-inactivated fetal bovine serum (FBS, Gibco, New York, NY, USA).”
To assess the effect of test compounds on IL-18, IL-6, and IL-10 levels, the medium of microglial cell cultures was collected 24 h after LPS treatment. The protein levels of the cytokines IL-18 (Mouse interleukin 18 ELISA kit), IL-6 (Mouse interleukin 6 ELISA kit), and IL-10 (Mouse interleukin 10 ELISA kit; all obtained from FineTest, Wuhan, China) were measured using commercially available enzyme-linked immunosorbent assay kits according to the manufacturer’s instructions. […]

Series [4] addresses T1, FPR2 (Homo sapiens, UniProt P25090).
T1 sequence (P25090 1-351): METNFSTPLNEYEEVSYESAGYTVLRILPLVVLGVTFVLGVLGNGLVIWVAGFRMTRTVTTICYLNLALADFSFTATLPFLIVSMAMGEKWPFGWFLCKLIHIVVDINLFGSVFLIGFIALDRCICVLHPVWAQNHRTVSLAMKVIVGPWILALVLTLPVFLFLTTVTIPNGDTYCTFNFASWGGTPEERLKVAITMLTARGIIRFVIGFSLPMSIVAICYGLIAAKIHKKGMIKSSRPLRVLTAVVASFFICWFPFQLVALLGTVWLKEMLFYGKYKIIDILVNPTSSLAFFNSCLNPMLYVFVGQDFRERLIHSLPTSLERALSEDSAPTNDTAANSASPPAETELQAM
Kind of series: Ca2+ mobilization (agonist activity) in FPR2-HL60 cells. The settings on record: for Ca2+ Mobilization HL60-FPR2 Efficacy: response to 5 nM WKYMVM = 100%.

As to `N#Cc1ccc(C[C@H](NC(=O)Nc2ccc(F)cc2)C(=S)N2CCc3ccccc32)cc1` [7b, (S)-1-[3-(4-Cyanophenyl)-1-(indolin-1-yl)-1-thioxopropan-2-yl]-3-(4-fluorophenyl)urea], the “H2S release detected with probe 9 in aqueous media” value in series [1] (24 h incubation) was “detected H2S release”; in series [1] (48 h incubation) it was “more intense”. Further, the “LPS-induced cytotoxicity (LDH release)” value in series [2] is given as “effectively mitigated”. In addition, the “LPS-induced increase of IL-6 level” value in series [3] was “able to counterbalance the LPS-induced increase”. The “fold less potent at FPR2 than the corresponding urea/amide” value in series [4] (ratio of FPR2 EC50 vs 3b, 3c or 4b) turned out to be 23 fold. In series [4], the “Ca2+ Mobilization HL60-FPR2 Efficacy” value turned out to be 170%.

On to `N#Cc1ccc(C[C@H](NC(=O)Nc2ccc(Br)cc2)C(=S)N2CCc3ccccc32)cc1` [8b, (S)-1-(4-Bromophenyl)-3-[3-(4-cyanophenyl)-1-(indolin-1-yl)-1-thioxopropan-2-yl]urea], for which, in series [1] (48 h incubation), the “H2S release detected with probe 9 in aqueous media” value is recorded as “limited capability to release H2S”. Moreover, the “LPS-induced cytotoxicity (LDH release)” value in series [2] was “effectively mitigated”. Besides, in series [3], the “LPS-induced increase of IL-6 level” value is “able to counterbalance the LPS-induced increase”. For the same molecule, the “Ca2+ Mobilization HL60-FPR2 Efficacy” value in series [4] is 150%.
